From PMC9667936, “Functional mapping of the 14-3-3 hub protein as a guide to design 14-3-3 molecular glues” (Chemical Science, 2022)
pKd: −log10 of the molar value. Where a SMILES comes first, the peptide text is derived from it. [ ]: non-standard residue; d: D form. The star is where a group is joined. ξ: configuration not given here. FITC = O=C1OC2(c3ccc(O)cc3Oc3cc(O)ccc32)c2ccc(NC(=S)*)cc21; Phe(4-NO2) = N[C@@H](Cc1ccc([N+](=O)[O-])cc1)C(=O)O; ξAla(4-thiazolyl) = NC(Cc1cscn1)C(=O)O; pS = N[C@@H](COP(=O)(O)O)C(=O)O; β3hS = N[C@@H](CO)CC(=O)O; Nva = CCC[C@H](N)C(=O)O; ξβ3hS = NC(CO)CC(=O)O; βAla = NCCC(=O)O

What was measured:
14-3-3γ/ChREBP = target: T1, 14-3-3γ/ChREBP (Homo sapiens, UniProt P61981+Q9NP71); assay: FA ChREBP titration to FITC-labelled peptide with or without 14-3-3 (ternary complex formation); type: binding; conditions: for ternary complex formation (anisotropy) on ChREBP titration in presence of 14-3-3γ: ChREBP titrated to preformed complex of 14-3-3γ and FITC-labelled peptide, Fig. 5d
T1 construct: made in house; host or cells: E. coli NiCo21 (DE3) for 14-3-3 gamma; ChREBP is a synthetic peptide
T1 sequence (P61981 1-247): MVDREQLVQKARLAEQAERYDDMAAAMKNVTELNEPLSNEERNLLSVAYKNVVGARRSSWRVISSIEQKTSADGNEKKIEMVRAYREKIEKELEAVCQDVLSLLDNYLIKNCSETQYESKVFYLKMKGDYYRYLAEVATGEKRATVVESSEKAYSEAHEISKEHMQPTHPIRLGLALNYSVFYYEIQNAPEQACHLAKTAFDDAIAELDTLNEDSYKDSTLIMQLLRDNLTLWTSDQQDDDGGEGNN
T1 sequence (Q9NP71 118-142 partner limits assumed): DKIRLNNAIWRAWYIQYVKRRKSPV
Protocol: performed twice per cycle with 20% v/v piperidine in N,N-dimethylformamide (DMF) for five minutes.
Fmoc-protected amino acids were mixed with 9 equivalents HBTU (0.38 M in DMF) and 15 equivalents of DIPEA, and coupled to the resin for 30 minutes (except pS, which is coupled for 60 minutes).
Peptides 1 and 2e-i were labeled with fluorescein via a 5-(-fluorenylmehyloxycarbonyl-amino)-3-oxapentanoic acid (O1-Pen) linker using 5 equivalents of FITC and 7.5 equivalents of DIPEA reacting overnight with continuous agitation. Removal of protecting groups and cleavage of the resin was performed by incubation in a mixture of trifluoroacetic acid (TFA), H2O, and triisopropylsilane (TIS) (96.5:2.5:1) for 2 hours with continuous agitation, followed by precipitation in an excess of ice-cold […]
Peptides 1 and 2a-d were FITC labeled via a three-step approach. The free amine on the N-terminus was protected as follows: to a solution of di-tert-butyl decarbonate (10 eq, 400 mM) in DCM was added DIEA (10 eq), and solution was added to the resin. Coupling was allowed to proceed for 1 h. At this time, resin was washed 3x with DCM and coupling was repeated as described. […]
All peptides were purified using preparative HP-LC. […] The purity of the samples was assessed using a UV detector at 254 […]
Fluorescence anisotropy (FA) - binary binding studies: 14-3-3γ was titrated in a 2-fold dilution series (starting at 100 or 400 µM 14-3-3γ) to 10 nM of fluorescein-labeled peptide in FA buffer (10 mM HEPES pH 7.4, 150 mM NaCl, 0.1% (v/v) Tween20, 0.1% (w/v) BSA). […]
Measurements were performed directly after plate preparation, using a Tecan Infinite F500 plate reader at room temperature (lex: 485 ± 20 nm; lem: 535 ± 25 nm; mirror: Dichroic 510; flashes: 20; integration time: 50 ms; settle time: 0 ms; gain: optimal; and Z-position: calculated from well). […] All data were analyzed using GraphPad Prism (7.00) for Windows and fitted using a four-parameter logistic model (4PL). Each measurement was performed in three independent experiments, average and standard deviations were calculated in Excel […]

14-3-3 = conditions: hits of a 10^8-membered synthetic non-canonical phosphopeptide library; read-out: affinity for 14-3-3; cited from earlier work
Description: We selected peptide 14-3-3.12, herein termed peptide 1, from the top hits for functional mapping. […] Further, the peptide completely occupies the 14-3-3 binding groove, thus allowing to explore both sides flanking 14-3-3's central phospho-accommodating pocket.

Structure (SMILES) | ternary complex formation (anisotropy) on ChREBP titration in presence of 14-3-3γ (14-3-3γ/ChREBP) | increase in anisotropy on ChREBP titration to FITC-labelled peptide alone (14-3-3γ/ChREBP; no 14-3-3 present, Fig. 5e) | pKd (14-3-3)
C[C@H](NC(=O)[C@H](CCCCN)NC(=O)[C@H](Cc1ccc([N+](=O)[O-])cc1)NC(=O)CCNC(=O)C[C@H](CO)NC(=O)[C@H](Cc1ccc([N+](=O)[O-])cc1)NC(=O)[C@H](COP(=O)(O)O)NC(=O)C(N)Cc1cscn1)C(=O)N[C@@H](CCCCNC(=S)Nc1ccc2c(c1)C(=O)OC21c2ccc(O)cc2Oc2cc(O)ccc21)C(N)=O (stereo partly drawn) [2c] (H-[ξAla(4-thiazolyl)][pS][Phe(4-NO2)][β3hS][βAla][Phe(4-NO2)]KAK(FITC)-NH2) | lack of increase in anisotropy values |  | 
C[C@H](NC(=O)[C@H](CCCCN)NC(=O)[C@H](Cc1ccc([N+](=O)[O-])cc1)NC(=O)CCNC(=O)C[C@H](CO)NC(=O)[C@H](Cc1ccc([N+](=O)[O-])cc1)NC(=O)[C@@H](N)COP(=O)(O)O)C(=O)N[C@@H](CCCCNC(=S)Nc1ccc2c(c1)C(=O)OC21c2ccc(O)cc2Oc2cc(O)ccc21)C(N)=O [2d] (H-[pS][Phe(4-NO2)][β3hS][βAla][Phe(4-NO2)]KAK(FITC)-NH2) | dose-dependent increase in 14-3-3/ChREBP/2d complex formation | not observed | 
CCC[C@H](NC(=O)[C@H](N)CCCCN)C(=O)N[C@@H](Cc1ccc([N+](=O)[O-])cc1)C(=O)NC(Cc1cscn1)C(=O)N[C@@H](COP(=O)(O)O)C(=O)N[C@@H](Cc1ccc([N+](=O)[O-])cc1)C(=O)NC(CO)CC(=O)NCCC(=O)N[C@@H](Cc1ccc([N+](=O)[O-])cc1)C(=O)N[C@@H](CCCCN)C(N)=O (stereo partly drawn) [compound 1] (H-[dK][Nva][Phe(4-NO2)][ξAla(4-thiazolyl)][pS][Phe(4-NO2)][ξβ3hS][βAla][Phe(4-NO2)]K-NH2) |  |  | 7.72
